Earlier results, collected in patent US20210120811A1, “AQUEOUS CAPSULE SUSPENSION CONCENTRATES CONTAINING A HERBICIDAL SAFENER AND A PESTICIDAL ACTIVE SUBSTANCE” (priority 2018, published 2021).

In the case of `CC1(C)CON(Cc2ccc(Cl)cc2Cl)C1=O` [DCPMI, 2-[(2,4-dichlorophenyl)methyl]-4,4′-dimethyl-3-isoxazolidinone], the water solubility is given as 39.5 ppm.
